Measurements: patent US20250129430A1, “HIGH ATP-AFFINITY PROTEIN AS THERAPEUTIC TARGET FOR INTRACTABLE CANCER MOLECULAR SUBTYPES AND INHIBITOR THEREOF” (VeraVerse Co., Ltd., priority 2021, published 2025)

Assays:
Experiment in all cases: Cell viability drug screen, 12-point dose-response AUC
Format in all cases: cell-based, human
SNU1750 = SNU1750 cells (SEM subtype); 72 hours
How it was run: (§1)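 Each cell line receives a twelve-point half-log titration of drug beginning 24 h after plating 5×10^3 cells per well. Following 72 h culture at 37 °C, luminescent signal is recorded and expressed versus vehicle. AUC is derived by the trapezoidal method.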

MKN1 = MKN1 cells; 72 hours
How it was run: as §1

SNU216 = SNU216 cells (non-SEM subtype); 72 hours
How it was run: as §1

Hs746T = Hs746T cells (SEM subtype); 72 hours
How it was run: as §1

SNU668 = SNU668 cells (SEM subtype); 72 hours
How it was run: as §1

NCC19 = NCC19 cells; 72 hours
How it was run: as §1

SNU620 = SNU620 cells; 72 hours
How it was run: as §1

SNU638 = SNU638 cells; 72 hours
How it was run: as §1

MKN28 = MKN28 cells; 72 hours
How it was run: as §1

NCI_N87 = NCI_N87 cells; 72 hours
How it was run: as §1

SNU1967 = SNU1967 cells; 72 hours
How it was run: as §1

SNU16 = SNU16 cells; 72 hours
How it was run: as §1

OCUM1 = OCUM1 cells; 72 hours
How it was run: as §1

MKN45 = MKN45 cells (non-SEM subtype); 72 hours
How it was run: as §1

YCC2 = YCC2 cells; 72 hours
How it was run: as §1

SNU601 = SNU601 cells; 72 hours
How it was run: as §1

YCC3 = YCC3 cells; 72 hours
How it was run: as §1

YCC11 = YCC11 cells (SEM subtype); 72 hours
How it was run: as §1

SK4 = SK4 cells (SEM subtype); 72 hours
How it was run: as §1

KATO3 = KATO3 cells; 72 hours
How it was run: as §1

SNU719 = SNU719 cells; 72 hours
How it was run: as §1

SNU484 = SNU484 cells (SEM subtype); 72 hours
How it was run: as §1

NCC20 = NCC20 cells; 72 hours
How it was run: as §1

NCC24 = NCC24 cells; 72 hours
How it was run: as §1

AGS = AGS cells (non-SEM subtype); 72 hours
How it was run: as §1

NCC59 = NCC59 cells; 72 hours
How it was run: as §1

SNU1 = SNU1 cells; 72 hours
How it was run: as §1

MKN74 = MKN74 cells; 72 hours
How it was run: as §1

FU97 = test system: FU97; set-up: Average Area Under the Viability Curve (AUC), AUC norm value: scale not given here; settings: FU97 cells; 72 hours
How it was run: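 Trapezoidal AUC of a 12-point, DMSO-normalized dose-response curve. Luminescent viability was measured after 72 h of exposure at 37° C to half-log serial dilutions (0.5% DMSO control), dosed 24 h after plating FU97 cells at 5×10^3 per well.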

| Structure (SMILES) | Average Area Under the Viability Curve (AUC), AUC norm value (SNU1750) | Average Area Under the Viability Curve (AUC), AUC norm value (MKN1) | Average Area Under the Viability Curve (AUC), AUC norm value (SNU216) | Average Area Under the Viability Curve (AUC), AUC norm value (Hs746T) | Average Area Under the Viability Curve (AUC), AUC norm value (SNU668) | Average Area Under the Viability Curve (AUC), AUC norm value (NCC19) | Average Area Under the Viability Curve (AUC), AUC norm value (SNU620) | Average Area Under the Viability Curve (AUC), AUC norm value (SNU638) | Average Area Under the Viability Curve (AUC), AUC norm value (MKN28) | Average Area Under the Viability Curve (AUC), AUC norm value (NCI_N87) | Average Area Under the Viability Curve (AUC), AUC norm value (SNU1967) | Average Area Under the Viability Curve (AUC), AUC norm value (SNU16) | Average Area Under the Viability Curve (AUC), AUC norm value (OCUM1) | Average Area Under the Viability Curve (AUC), AUC norm value (MKN45) | Average Area Under the Viability Curve (AUC), AUC norm value (YCC2) | Average Area Under the Viability Curve (AUC), AUC norm value (SNU601) | Average Area Under the Viability Curve (AUC), AUC norm value (YCC3) | Average Area Under the Viability Curve (AUC), AUC norm value (YCC11) | Average Area Under the Viability Curve (AUC), AUC norm value (SK4) | Average Area Under the Viability Curve (AUC), AUC norm value (KATO3) | also measured |
| --- | --- | --- | --- | --- | --- | --- | --- | --- | --- | --- | --- | --- | --- | --- | --- | --- | --- | --- | --- | --- | --- |
| COc1cc(N2CCC(N3CCN(C)CC3)CC2)ccc1Nc1ncc(Cl)c(Nc2ccccc2S(=O)(=O)C(C)C)n1 [TAE684 (NVP-TAE684), TAE684] | −0.941 | 0 | 0.5205 | 1.039 | 1.009 | 1.944 | 0.4637 | 0.4071 | −0.4177 | 2.003 | −1.412 | −3.18 | −0.2195 | 2.601 | −0.5512 | 1.062 | 1.708 | −1.4836 | −0.6572 | 0.2672 | Average Area Under the Viability Curve (AUC), AUC norm value (SNU719): 1.051; Average Area Under the Viability Curve (AUC), AUC norm value (SNU484): −0.6182; Average Area Under the Viability Curve (AUC), AUC norm value (NCC20): −2.659; Average Area Under the Viability Curve (AUC), AUC norm value (NCC24): 1.662; Average Area Under the Viability Curve (AUC), AUC norm value (AGS): −1.326; Average Area Under the Viability Curve (AUC), AUC norm value (NCC59): 1.273; Average Area Under the Viability Curve (AUC), AUC norm value (SNU1): −0.1185; Average Area Under the Viability Curve (AUC), AUC norm value (MKN74): −0.04126; Average Area Under the Viability Curve (AUC), AUC norm value (FU97): −1.587 |
| COc1cc([C@@H]2c3cc4c(cc3[C@@H](O[C@@H]3O[C@@H]5CO[C@@H](c6cccs6)O[C@H]5[C@H](O)[C@H]3O)[C@H]3COC(=O)[C@H]23)OCO4)cc(OC)c1O [Teniposide (Vumon), Teniposide] | −0.5618 | −1.955 | 0.9296 | 0.6261 | −0.6175 | 2.415 | 0 | −0.3584 | 0.1008 | 2.319 | −0.7519 | −0.8192 | 1.001 | 1.933 | 0.249 | −1.094 | 2.1949 | −1.342 | −0.2681 | 1.852 | Average Area Under the Viability Curve (AUC), AUC norm value (SNU719): 2.899; Average Area Under the Viability Curve (AUC), AUC norm value (SNU484): −1.211; Average Area Under the Viability Curve (AUC), AUC norm value (NCC20): −0.8716; Average Area Under the Viability Curve (AUC), AUC norm value (NCC24): −0.5766; Average Area Under the Viability Curve (AUC), AUC norm value (AGS): −2.042; Average Area Under the Viability Curve (AUC), AUC norm value (NCC59): 1.59; Average Area Under the Viability Curve (AUC), AUC norm value (SNU1): −0.3019; Average Area Under the Viability Curve (AUC), AUC norm value (MKN74): 0.3993; Average Area Under the Viability Curve (AUC), AUC norm value (FU97): 1.309 |
| CC(C)(C)c1ccc(C(O)CCCN2CCC(C(O)(c3ccccc3)c3ccccc3)CC2)cc1 (stereo not drawn) [Terfenadine] | −0.05758 | −0.8127 | 1.499 | −0.3246 | −0.5647 | 3.135 | 0.4918 | −0.8091 | −0.2901 | 1.465 | −1.065 | 0 | 1.032 | −0.5441 | 0.4862 | 2.641 | 1.423 | −0.996 | −0.8713 | 0.4901 | Average Area Under the Viability Curve (AUC), AUC norm value (SNU719): 1.059; Average Area Under the Viability Curve (AUC), AUC norm value (SNU484): 0.06057; Average Area Under the Viability Curve (AUC), AUC norm value (NCC20): −1.029; Average Area Under the Viability Curve (AUC), AUC norm value (NCC24): −2.355; Average Area Under the Viability Curve (AUC), AUC norm value (AGS): −1.278; Average Area Under the Viability Curve (AUC), AUC norm value (NCC59): 2.3563; Average Area Under the Viability Curve (AUC), AUC norm value (SNU1): 1.34; Average Area Under the Viability Curve (AUC), AUC norm value (MKN74): −1.589; Average Area Under the Viability Curve (AUC), AUC norm value (FU97): 1.163 |
